Laboratory results published in ChEMBL document CHEMBL1149511, “Tri-substituted triazoles as potent non-nucleoside inhibitors of the HIV-1 reverse transcriptase” (Bioorg Med Chem Lett, 2006).

How the values were obtained:
Type in all cases: functional, cell-based
HeLa [1] = assay: Antiviral activity against wild type HIV1 in HeLa-JC53 cells; conditions: Homo sapiens
HeLa [2] = assay: Antiviral activity against HIV1 Y188L mutant in HeLa-JC53 cells
HeLa [3] = assay: Cytotoxicity against human HeLa-JC53 cells
HeLa [4] = assay: Antiviral activity against HIV1 K103N-Y181C mutant in HeLa-JC53 cells

| SMILES | EC50 (HeLa [1]) [nM] | EC50 (HeLa [2]) [nM] | Activity (HeLa [3]) | EC50 (HeLa [4]) [nM] |
| --- | --- | --- | --- | --- |
| Cc1ccc2c(C)cc(C)c(-n3c(SCC(=O)Nc4ccc(S(N)(=O)=O)cc4Cl)nnc3C(F)(F)F)c2n1 | 1 | 4 | Not toxic |  |
| CN(C)c1ccc(-n2c(SCC(=O)Nc3ccc(S(N)(=O)=O)cc3Cl)nnc2C(F)(F)F)c2ccccc12 | 2 | 7 | Not toxic |  |
| Cc1ccc2c(C)ccc(-n3c(C)nnc3SCC(=O)Nc3ccc(S(N)(=O)=O)cc3Cl)c2c1 | 0.6 | 6 | Not toxic |  |
| Cc1cc(C)c2ccccc2c1-n1c(C)nnc1SCC(=O)Nc1ccc(S(N)(=O)=O)cc1Cl | 0.1 | 4 | Not toxic |  |
| Cc1ccc(NC(=O)CSc2nnc(C)n2-c2c(C)ccc3ccccc23)c(Cl)c1 | 1 | 200 |  | 60 |
| Cc1ccc(NC(=O)CSc2nnc(C)n2-c2cccc3ccccc23)c(Cl)c1 | 4 | 590 |  | 54 |
| COc1ccc(-n2c(C)nnc2SCC(=O)Nc2ccccc2Br)c2ccccc12 | 0.7 | 460 |  | 93 |
